Test results: patent US20250223306A1, “TEAD INHIBITORS AND METHODS OF USE” (Sporos BioDiscovery, Inc., priority 2022, published 2025)

Key:
[1] = tested on: NCI-H226 cells; assay: Proliferation, Cell Titer One assay; type: cell-based; settings: 6 days
Description: (§1) Cell proliferation of a TEAD dependent NF2-null mesothelioma cell line, NCI-H226, and a TEAD-non-dependent mesothelioma cell line, NCI-H28 was assayed using two different protocols: • a) CellTiter-Glo 2.0 (Promega #G9243). The effect of the TEAD inhibitors disclosed herein on cell proliferation was determined in TEAD1-genetically dependent cell line NCI-H226 (responder cell line) and TEAD-independent cell lines (NCI-H23, HEK293T), as non-responder, negative control. Cells were seeded in 96-well plates (Thermo Scientific #167008) in growth media (RPMI-1640, Gibco #61870-010) for NCI-H226 and NCI-H23 or DMEM (Gibco #31966-021, HEK293T) with 10% Heat Inactivated Fetal Bovine Serum (Gibco 10500-064) at 800 (NCI-H226 and HEK-293T) or 2000 (NCI-H23) cells per well at 37° C., 5% CO2, humidified incubator; 24 hours later, fresh growth media containing test compound or DMSO vehicle was added and incubated with the cells for 144 hrs. TEAD inhibitor stocks were made at a 1000× fold excess in DMSO, and a dose response test compound dose range of 10,000 to 0.1 nM was used. Each treatment was carried out in triplicate. After 144 hrs of treatment, relative cell viability numbers were determined using the CellTiter-Glo 2.0 assay following the manufacturer's instructions. Test plates and CellTiter-Glo 2.0 reagent were allowed to equilibrate to room temperature. CellTiter-Glo 2.0 reagent was added at 1:1 reagent to media ratio to the 96-well cell plates, plates were placed on a plate shaker for 2 minutes and then incubated at room temperature for a further 10 minutes to allow complete cell lysis to occur. The mix was then transferred to white, 96-well luminometer assay plates (Greiner Bio One #655075). Luminescence was quantified using a CLARIOStar Plus multi-mode plate reader (BMG Labtech) in luminescence detection mode with the recommended settings (ultra-Glo pre-set: emission 545-50 nm with autofocus and enhanced dynamic range on). Relative cell density was expressed as a function of inhibitor concentration, with respect to DMSO-only control wells. Data where plotted using GraphPad Prism and IC50 values for the biological effect were calculated using the EC50 non-linear fit function using a sigmoidal, 4-parameter logistic, least squares fit with no constraints. • b) Cell Titer One (Promega, #G3582). The effect of the TEAD inhibitors disclosed herein on cell proliferation was also determined using the Promega Substrate Cell Titer Aqueous One Solution Reagent. The TEAD inhibitors were evaluated for the effects on cell proliferation responder (H226) and non-responder negative control cancer cell lines (CAMA1, H28), as well as non-transformed normal human cells (HUVEC, NHDF). Dissociated cells were resuspend in media (depending on cell line, either in DMEM, RPMI, or EMEM all with 10% FBS, with gentamicin as an antibiotic). Cells were seeded at 100 μL/well at 750 cells per well in 96-well plates and allowed to settle and attach. After an incubation of 24 hrs (37° C., 5% CO2, humidified incubator), 100 μL of test compound-containing media was added. A dilution series of 2000× concentrated stock of test compounds was prepared in DMSO, for final concentrations from 0.1 to 10,000 nM. After addition of test compound-containing media, cells were incubated for 6 days at 37° C., 5% CO2, humidified incubators). To measure cell density, 20 μL of Promega Substrate Cell Titer 96 Aqueous One Solution Reagent (Promega, #G3582) to each well was added according to the manufacturer's instructions. Plates were incubated at 37° C. for usually 3-8 hrs, to reach in the control cells (without compound) an OD of 1.5 at 490 nm. The OD was measured using Vmax [Molecular Devices] spectrophotometer plate reader. Media only-wells were used as background controls and cell densities normalized to DMSO vehicle control. ECs were taken as the concentration achieving 50% of maximal growth inhibition.

[2] = tested on: NCI-H226 cells; assay: Proliferation and cell viability, CellTiter-Glo 2.0 (CTG) assay; type: cell-based; settings: 144 hrs
Description: as §1

[3] = tested on: NCI-H23 cells; assay: as above; type: cell-based; settings: 144 hrs
Description: as §1

[4] = biological target: TEAD1 (Homo sapiens, UniProt P28347); assay: TEAD thermal shift assay (TSA); type: binding
Chain of TEAD1 (P28347 whole entry): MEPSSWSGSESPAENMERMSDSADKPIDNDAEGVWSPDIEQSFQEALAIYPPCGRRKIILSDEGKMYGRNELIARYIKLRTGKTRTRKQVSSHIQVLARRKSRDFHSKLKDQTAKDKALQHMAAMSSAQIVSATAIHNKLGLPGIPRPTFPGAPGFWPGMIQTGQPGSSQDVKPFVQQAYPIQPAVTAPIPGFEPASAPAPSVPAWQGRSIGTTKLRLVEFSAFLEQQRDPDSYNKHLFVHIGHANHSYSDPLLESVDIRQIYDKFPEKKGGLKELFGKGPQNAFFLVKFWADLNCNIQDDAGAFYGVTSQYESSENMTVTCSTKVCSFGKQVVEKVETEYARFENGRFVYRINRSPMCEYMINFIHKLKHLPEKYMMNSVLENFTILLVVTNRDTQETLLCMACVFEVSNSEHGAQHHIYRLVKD
Source text: (§2) Thermal shift assay (TSA) is a biophysical method to evaluate stability of proteins with change in temperature. The assay measures thermal denaturation temperature in varying conditions such as different drug concentration. For this example, fluorogenic dye was used that bind to unfolded proteins. SYPRO Orange binds non-specifically to hydrophobic surfaces, and water strongly quenches its fluorescence. When the protein unfolds, the exposed hydrophobic surfaces bind the dye, resulting in an increase in fluorescence by excluding water. Detergent micelles also bind the dye and increase background noise dramatically. Binding of small molecules to proteins leads to a stabilization against to thermal denaturation with the degree of thermal stabilization proportional to the strength of binding.
(§3) The study described in this example investigated the change in melting temperature (ΔTm) of TEAD isoforms 1˜4 when treated with TEAD inhibitors. Compound 1-1-a known strong TEAD1 and weak TEAD2 inhibitor; as well as Compound 1-4-a pan-TEAD inhibitor were used as controls.
(§4) Tris-HCL was dissolved in 5 mL of Cell culture grade water and allowed to dissolve completely. The pH was adjusted to 8 using NaOH. Additional assay buffer components were added in the order listed above. The buffer was mixed slowly.
(§5) Assay buffer was prepared according to the procedures outlined above and dispensed into test wells. Spyro orange was added to a concentration of 5× in the assay buffer, followed by test compound stock solution which was added to a concentration of 10 μM or 30 μM in the assay buffer.
(§6) The melt cycle was performed in Bio-RAD PCR instrument from 20-95° C. with ramp rate of 1° C./min.

[5] = biological target: TEAD4 (Homo sapiens, UniProt Q15561); assay: TEAD thermal shift assay (TSA); type: binding
Chain of TEAD4 (Q15561 whole entry): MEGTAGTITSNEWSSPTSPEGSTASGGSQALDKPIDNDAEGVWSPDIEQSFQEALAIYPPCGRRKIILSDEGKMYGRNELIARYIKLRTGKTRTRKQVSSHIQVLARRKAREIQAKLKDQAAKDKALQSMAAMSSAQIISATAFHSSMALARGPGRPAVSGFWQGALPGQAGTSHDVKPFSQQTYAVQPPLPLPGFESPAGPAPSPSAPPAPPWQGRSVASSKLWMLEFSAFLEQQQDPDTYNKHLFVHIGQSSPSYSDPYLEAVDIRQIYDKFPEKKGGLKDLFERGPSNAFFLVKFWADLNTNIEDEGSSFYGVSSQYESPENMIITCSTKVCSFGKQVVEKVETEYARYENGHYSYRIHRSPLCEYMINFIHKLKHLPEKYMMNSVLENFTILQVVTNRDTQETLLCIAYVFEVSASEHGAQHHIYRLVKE
Source text: as §2, §3, §4, §5, §6

[6] = biological target: TEAD3 (Homo sapiens, UniProt Q99594); assay: TEAD thermal shift assay (TSA); type: binding
Chain of TEAD3 (Q99594 whole entry): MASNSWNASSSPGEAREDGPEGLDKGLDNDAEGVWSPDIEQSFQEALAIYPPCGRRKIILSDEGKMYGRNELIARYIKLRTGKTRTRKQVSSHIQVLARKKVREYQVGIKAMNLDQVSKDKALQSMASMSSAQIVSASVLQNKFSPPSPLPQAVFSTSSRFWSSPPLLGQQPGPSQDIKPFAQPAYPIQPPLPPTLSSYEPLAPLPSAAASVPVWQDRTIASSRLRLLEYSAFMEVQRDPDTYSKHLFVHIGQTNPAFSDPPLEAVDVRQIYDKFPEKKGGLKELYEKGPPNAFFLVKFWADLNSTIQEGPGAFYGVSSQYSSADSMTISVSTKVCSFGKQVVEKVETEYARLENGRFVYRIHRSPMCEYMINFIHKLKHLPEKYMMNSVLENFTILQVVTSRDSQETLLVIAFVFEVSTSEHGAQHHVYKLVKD
Source text: as §2, §3, §4, §5, §6

[7] = biological target: TEAD2 (Homo sapiens, UniProt Q15562); assay: TEAD thermal shift assay (TSA); type: binding
Chain of TEAD2 (Q15562 whole entry): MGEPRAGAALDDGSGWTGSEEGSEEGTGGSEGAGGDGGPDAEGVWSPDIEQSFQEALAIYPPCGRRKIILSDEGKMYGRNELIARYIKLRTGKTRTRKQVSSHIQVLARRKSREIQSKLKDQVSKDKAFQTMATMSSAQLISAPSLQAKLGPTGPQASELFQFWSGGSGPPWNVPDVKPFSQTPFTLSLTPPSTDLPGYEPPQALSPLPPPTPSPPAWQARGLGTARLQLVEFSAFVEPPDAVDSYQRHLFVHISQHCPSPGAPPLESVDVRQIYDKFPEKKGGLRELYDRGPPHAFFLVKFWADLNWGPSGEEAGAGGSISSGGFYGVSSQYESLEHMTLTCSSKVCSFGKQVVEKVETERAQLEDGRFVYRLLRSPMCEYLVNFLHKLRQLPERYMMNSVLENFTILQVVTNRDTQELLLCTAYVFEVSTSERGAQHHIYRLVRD
Source text: as §2, §3, §4, §5, §6

[8] = Homo sapiens, NCI-H226, 144 h, H226-responder cell line
[9] = Homo sapiens, NCI-H23, H23-non-responder cell line
[10] = ratio of protein to compound 1:1
[11] = ratio of protein to compound 1:3

IC50 ([1]; Homo sapiens, NCI-H226, 144 h)	IC50 [2, 8]	SMILES	other results
200 to 1000 nM		C[C@H](NC(=O)c1cnc2c(C3=CCCCC3)cccc2c1)c1ccccn1 [Compound 35, (S)-8-(cyclohex-1-en-1-yl)-N-(1-(pyridin-2-yl)ethyl)quinoline-3-carboxamide]	
< 200 nM	< 200 nM	C[C@H](NC(=O)c1cnc2c(C3=CCC(F)(F)CC3)cccc2c1)c1ccccn1 [Compound 27, (S)-8-(4,4-difluorocyclohex-1-en-1-yl)-N-(1-(pyridin-2-yl)ethyl)quinoline-3-carboxamide]	
> 1000 nM		C[C@@H](CO)NC(=O)c1cnc2c(C3=CCCCC3)cccc2c1 [Compound 36, (S)-8-(cyclohex-1-en-1-yl)-N-(1-hydroxypropan-2-yl)quinoline-3-carboxamide]	
< 200 nM	< 200 nM	CC(C)NC(=O)c1cnc2c(C3=CCC(C)(C)CC3)cccc2c1 [Compound 30, 8-(4,4-dimethylcyclohex-1-en-1-yl)-N-isopropylquinoline-3-carboxamide]	
< 200 nM	< 200 nM	O=C(NCc1ccccn1)c1cnc2c(C3=CCC(C(F)(F)F)CC3)cccc2c1 (stereo not shown) [Compound 5, N-(pyridin-2-ylmethyl)-8-(4-(trifluoromethyl)cyclohex-1-en-1-yl)quinoline-3-carboxamide]	IC50 [3, 9]: > 1000 nM
> 1000 nM	< 200 nM	C[C@H](NC(=O)c1cnc2c(C3=CCC(C)(C)CC3)cccc2c1)c1ccccn1 [Compound 31, (S)-8-(4,4-dimethylcyclohex-1-en-1-yl)-N-(1-(pyridin-2-yl)ethyl)quinoline-3-carboxamide]	
> 1000 nM		O=C(NCc1ncco1)c1cnc2c(C3=CCCCC3)cccc2c1 [Compound 37, 8-(cyclohex-1-en-1-yl)-N-(oxazol-2-ylmethyl)quinoline-3-carboxamide]	
> 1000 nM	200 to 1000 nM	O=C(NCc1ncco1)c1cnc2c(C3=CCC(F)(F)CC3)cccc2c1 [Compound 29, 8-(4,4-difluorocyclohex-1-en-1-yl)-N-(oxazol-2-ylmethyl)quinoline-3-carboxamide]	

Further lines, the compound ahead of its results:

SMILES	IC50 ([1]; Homo sapiens, NCI-H226, 144 h)	IC50 [2, 8]	other results
CC(C)NC(=O)c1cnc2c(C3=CCC(F)(F)CC3)cccc2c1 [Compound 26, 8-(4,4-difluorocyclohex-1-en-1-yl)-N-isopropylquinoline-3-carboxamide]	< 200 nM		IC50 ([2]; Homo sapiens, NCI-H226, H226-responder cell line): < 200 nM
O=C(NCc1ncco1)c1cnc2c(C3=CCC(C(F)(F)F)CC3)cccc2c1 (single isomer, unassigned) [Compound 12, N-(oxazol-2-ylmethyl)-8-(4-(trifluoromethyl)cyclohex-1-en-1-yl)quinoline-3-carboxamide]	200 to 1000 nM	< 200 nM	IC50 [3, 9]: > 1000 nM
O=C(NCc1ncco1)c1cnc2c(C3=CCC(C(F)(F)F)CC3)cccc2c1 (single isomer, unassigned) [Compound 13, N-(oxazol-2-ylmethyl)-8-(4-(trifluoromethyl)cyclohex-1-en-1-yl)quinoline-3-carboxamide]			IC50 [1]: < 200 nM; IC50 ([2]; H226-responder cell line): < 200 nM; IC50 ([3]; H23-non-responder cell line): > 1000 nM
C[C@H](NC(=O)c1ccc2c(-c3ccc(C(F)(F)F)cc3)cccc2c1)c1cccc(N)n1 [Compound 1-4, reference compound]			TEAD1 ΔTm [4, 10]: 10 °C; TEAD1 ΔTm [4, 11]: 12 °C; thermal shift / binding across TEAD isoforms, in words ([4]; summary of Table 14 over TEAD1-4): thermal shifts for all four TEAD isoforms; TEAD4 ΔTm [5, 10]: 5 °C; TEAD4 ΔTm [5, 11]: 9 °C; TEAD3 ΔTm [6, 10]: 5 °C; TEAD3 ΔTm [6, 11]: 9 °C; TEAD2 ΔTm [7, 10]: 5 °C; TEAD2 ΔTm [7, 11]: 7 °C
O=C(NCCO)c1cnc2c(C3=CCC(C(F)(F)F)CC3)cccc2c1 (stereo not shown) [Compound 39, N-(2-hydroxyethyl)-8-(4-(trifluoromethyl)cyclohex-1-en-1-yl)quinoline-3-carboxamide]	< 200 nM	< 200 nM	
CNC(=O)c1cnc2c(C3=CCC(C(F)(F)F)CC3)cccc2c1 (stereo not shown) [Compound 38, N-methyl-8-(4-(trifluoromethyl)cyclohex-1-en-1-yl)quinoline-3-carboxamide]	200 to 1000 nM	< 200 nM	
COCCNC(=O)c1cnc2c(C3=CCC(C(F)(F)F)CC3)cccc2c1 (stereo not shown) [Compound 40, N-(2-methoxyethyl)-8-(4-(trifluoromethyl)cyclohex-1-en-1-yl)quinoline-3-carboxamide]	200 to 1000 nM	< 200 nM	
